Source: patent US6569446B1, “Solubilization of flavonols” (The Howard Foundation, priority 1996, dated 2003)
In brackets after ≈: the same amount, converted by molar mass.

Assays:
[1] = Solubilization of quercetin, quercitrin and rutin by heat in water, grape anthocyanin and malvin chloride solutions (Example 6); format: physicochemical; conditions: thermodynamic from solid
Method: Quercetin is a flavonol aglycone. In fruit juices it exists as the glycoside. The purpose of the investigation was to examine the solubilization of glycosides of flavonols by anthocyanins. […] Samples were diluted in water 1:9 before reading. Aliquots of anthocyanin and water with and without the flavonol were treated similarly.
The same procedure was used for measuring the solubility of the flavonols in malvin chloride. In this case 1.8 mg malvin chloride was dissolved in 2.0 ml citrate buffer at pH3. To 1 ml was added 2 mg of the flavonol, the other 1 ml acted as a control. After heating, the mixture was cooled to room temperature, centrifuged, and the supernatant diluted 1:9 with 50% aqueous ethanol. The optical densities were measured at 375 nm.

physchem = format: physicochemical; conditions: 20 °C, aqueous with cosolvent or surfactant or cyclodextrin, kinetic from dmso stock
Method: The procedure used was as follows: anthocyanin powder was dissolved in deionised water to give concentrations of 0.625, 1.25, 2.5, 10 and 20 mg/ml. […] The mixtures were allowed to stand for 20 to 30 min and then centrifuged at 2000×g for 30 min at 20° C. The optical densities were measured at 258 nm and 375 nm as in Example 1. To 5 ml of each corresponding anthocyanin solution was added the same volume of ethanol determined above to give a precipitate, and the optical densities measured. […] The control was water.
Since quercitin is more soluble in aqueous ethanol than water a further series of controls were prepared in which quercetin in ethanol was added to water in amounts corresponding to those used in the test, and the solubilities likewise determined. […] To solubilize quercetin more anthocyanin was needed than quercetin w/w.

[2] = Solubility of solid quercetin mixed with liquids at room temperature (Example 3); format: physicochemical; conditions: 20 °C, thermodynamic from solid, Room temp
[3] = Solubility of solid quercetin in liquids after heating to boiling in microwave oven (Example 3); format: physicochemical; conditions: 20 °C, thermodynamic from solid
Method: To investigate dissolution by heat, the liquids were heated in a sealed tube for 1 min in a microwave oven (when boiling of the liquid occurred) and cooled to room temperature.

[4] = Solubilization of quercetin in aqueous malvin chloride by addition of ethanol solution of quercetin (Example 5); format: physicochemical
Method: The anthocyanins can be divided into two major classes: the monomeric anthocyanins and the polymeric anthocyanins. A typical example of a monomeric anthocyanin is malvin chloride, a salt of the oxonium ion malvidin-3-glucose and the chloride ion. It can be obtained in a high state of purity (Indofine Inc, USA) and therefore used to determine the solubilizing effect of an anthocyanin monomer. The procedure was as follows: malvin chloride (2.2 mg) was dissolved in 2 ml citrate buffer (pH 3.0)—one ml acted as a control. […] Equal amounts of ethanol were added to the control. Each solution was diluted (1:9) with 5% aqueous ethanol and the optical density determined at 275 nm.

[5] = ileostomy subjects (Hollman et al 1995); cited from earlier work
[6] = aqueous with cosolvent or surfactant or cyclodextrin
[7] = pH 3, aqueous with cosolvent or surfactant or cyclodextrin

SMILES	solubility at 1 min [1, 6]	solubility at 1 min [1, 7]	solubility at 1 min ([1]; water)	solubility (physchem)	solubility (physchem; Solubility of quercetin, 20 mg grape anthocyanin powder/ml, in a 22% ethanol solution)	solubility at 3 h ([2]; aqueous with cosolvent or surfactant or cyclodextrin, Ethanol 12% v/v)	solubility at 3 h ([2]; aqueous with cosolvent or surfactant or cyclodextrin, Red wine Cabernet-Sauvignon (F))	solubility at 3 h ([2]; aqueous with cosolvent or surfactant or cyclodextrin, grape Anthocyanin powder 1 g/L in water)	solubility at 3 h ([2]; Water, OD 375 nm)	solubility at 1 min ([3]; aqueous with cosolvent or surfactant or cyclodextrin, Boiling, Rosé D'Anjou (F))	solubility at 1 min ([3]; water, Solubility of quercetin)	solubility ([4]; 20% v/v ethanol, aqueous with cosolvent or surfactant or cyclodextrin, ethanol 20% v/v, without malvin chloride)	Solubility of quercetin in presence of malvin chloride ([4]; citrate buffer pH 3.0, 20% v/v ethanol, possibly super saturated)	quercetin added to 1 ml malvin chloride with no precipitate ([4]; malvin chloride 1.1 mg/ml in citrate buffer pH 3.0, quercetin added in ethanol, slight precipitate at 1000 μg)	absorption [5]
C[C@@H]1O[C@@H](Oc2c(-c3ccc(O)c(O)c3)oc3cc(O)cc(O)c3c2=O)[C@H](O)[C@H](O)[C@H]1O [Quercitrin, quercetin 3-L-rhamnoside]	316 µg/mL (≈ 705 µM)	127 µg/mL (≈ 283 µM)	53 µg/mL (≈ 118 µM)												
C[C@@H]1O[C@@H](OC[C@H]2O[C@@H](Oc3c(-c4ccc(O)c(O)c4)oc4cc(O)cc(O)c4c3=O)[C@H](O)[C@@H](O)[C@@H]2O)[C@H](O)[C@H](O)[C@H]1O [Rutin, quercetin 3β-D-rutinoside hydrate]	260 µg/mL	74 µg/mL	36 µg/mL												
O=c1c(O)c(-c2ccc(O)c(O)c2)oc2cc(O)cc(O)c12 [quercetin]	90 µg/mL (≈ 298 µM)	28 µg/mL (≈ 92.6 µM)	2 µg/mL (≈ 6.62 µM)	13 µg/mL (≈ 43 µM)	75 µg/mL (≈ 248 µM)	1 µg/mL (≈ 3.31 µM)	3 µg/mL (≈ 9.93 µM)	0.7 µg/mL (≈ 2.32 µM)	0.3 µg/mL (≈ 0.993 µM)	9 µg/mL (≈ 29.8 µM)	2 µg/mL (≈ 6.62 µM)	13 µg/mL (≈ 43 µM)	extremely soluble	750 µg	25%
